Structures are written as SMILES.

For data set [1], the system named is Candida albicans. Conditions: cited from earlier work.
Data set [2] has as its system Candida albicans. The data set is described as follows: Effect on proliferation of Candida albicans, disk on agar surface (A). It counts as cell-based. How it is done: Stock solutions of the following test compounds were dissolved in physiological saline. However DOV was dissolved in water.
C. albicans isolated from clinical specimens were density grown in SubbaRow's broth at 35 C. A loopful of yeast suspension was evenly spread on the surface of Muller-Hilton agar plates (7cm diameter) with a sterile cotton applicator and incubated for 12 hours. The test compounds were placed on the surface of the sensidisks (Whatmann No. 17 paper, 6mm diameter) in a volume of 5, 10, 20, and 50 μliter of stock solutions and made up a final volume of 50 μliter with saline. The plates then were placed and kept at 37 C for 24 hours (*) and 48 hours (**) when the diameters of the inhibitory rings were recorded. Photographs were also taken of plates.

Data set [3] concerns blood coagulation (normal plasma). The data set is described as follows: Blood coagulation (ii)(b), normal plasma. The format is biochemical, human. Here is the method: (§1) 200 microliter thromboplastin (Ortho) was mixed with 10 microliter ketoaldehyde (KA) stock solution. Then 100 microliter citrated human blood plasma was added and the clot formation time (in seconds) was measured on a Fibrionometer. The effect of the ketoaldehyde on coagulation time was evaluated by comparing the clotting time of the KA treated plasma with the untreated control. The result (d%) was read from a special chart expressing the clotting activity.
(§2) All measurements were run in triplicates. The assay was run at 37 C (waterbath) in special tubes and all solutions were prewarmed.
(§3) (ii) The plasminogen and KA were incubated for
(§4) varying time before the blood plasma was added.
(b) with normal plasma: clotting time = 11. 7 sec

Data set [4] has as its system blood coagulation (citrated human blood plasma). The data set is described as follows: Blood coagulation (i), ketoaldehyde kept 1-2 seconds before plasma added. The format is biochemical. The settings on record: for d % (clotting activity) / coagulation time / clot: 1-2 seconds contact; for d % (clotting activity): control 22; for coagulation time: control 24; for clot: control hard; for anti-coagulant effectiveness: summary of Example 9. How it is done: as §1, §2
(i) The plasminogen and ketoaldehyde were kept for
1-2 seconds before the blood plasma was added.

A further data set concerns C. albicans. The data set is described as follows: Inhibition of C. albicans, yeast mixed in agar (B). It counts as cell-based. Conditions: 30 μl test, 24 hrs incubation; mean of twenty assays. How it is done:
Stock cultured C. albicans is used. The yeast isolated from clinical specimens was stock cultured (subcultured) on semisolid trypsoy agar plates. […] Thus, from the subculture(s), transfers were made every 48 hrs into SRB to keep the experimental strain available for assays. From the 24-48 hrs SRB cultures a loopful of turbid solutions was transferred and spread on either (a) trypsoy agar plates or (b) EBM agar plates which were fortified with horse and calf serum and incubated at 36 C for 24-48 hrs. […] Plate (a) was selected for growth inhibition assay(s) with ketoaldehydes.
One milliliter of SRB culture (24-48 hrs growth) was mixed with 10 ml trypsoy agar, warmed to 38 C and rapidly poured into sterile Petri dishes (7cm), spread evenly and allowed to solidify. The selected test compounds (in 30 μl total volume, as above) were placed in sensidisks (6mm dia, Whatman #17) on the infected agar surface. The plates were incubated for 24 hrs at 37 C. The extent of inhibition, clear zones around the sensi disks, were measured and recorded. In some cases contact photorecords were also made with the plates. (The dark zones on the photos are the inhibition (no growth) areas of C. albicans.
These assays were aimed at finding the variations of inhibition due to (i) the variable amount of yeast in (ii) a three dimensional area of the plates. Each result is the statistical mean of twenty assays on different batches of C. albicans.

The subject of data set [5] is Penicillum notatum. The data set is described as follows: Inhibition of proliferation of molds, disk assay. The format is cell-based. The settings on record: 8 days; for persistence of inhibition rings: highest concentration; for spore formation / mycelium development in second ring: penicillin plate.
The test system of data set [6] is Penicillum notatum. The data set is described as follows: Inhibition of proliferation of molds, disk assay. It counts as cell-based. More on the design: unit not given here. The settings on record: 40 hrs. How it is done: (§5) (1) Stock solutions in 26% 2 popanediol:
(§6) (3) Assay: The microorganisms were grown in Saburand's dextrose agar (Scott) at 35 C for stock cultures. For assay the spores were plated on Mueller-Hilton agar plates (7cm dia). The test compounds were applied to the plates on sensi disks (6 mm dia, Whatmann #17 paper) in volumes of 10, 20, 30, 40 microliter made up to 40 plating volume of microliter with the solvent. The plates were incubated at room temperature and in the dark for 40 hrs. The diameter of the inhibition ring around the sensi disks were measured.

For a further data set, the system named is Aspergillus niger. The data set is described as follows: Inhibition of proliferation of molds, disk assay. More on the design: unit not given here. The format is cell-based. The settings on record: 40 hrs. How it is done:
as §5, §6

In data set [7] the test system is blood coagulation (whole blood). The data set is described as follows: Blood coagulation (c), trial assay with whole blood. Conditions: control 14.9 sec. The format is biochemical. Here is the method:
as §1, §2
(c) A trial assay where blood plasma was replaced

A further data set concerns Sarcoma-180 cells. The data set is described as follows: Radiation enhancement in mice carrying ascitic Sarcoma-180 cells. It counts as in vivo. An excerpt: Ten minutes after the injection the mice were irradiated with a gamma source (612 RAD equivalent of 400 R total body radiation; calculated lethaldose:LD-50/30 days). The treatment was repeated 3 times 4 days apart. […] One day after the last radiation, the animals were sacrificed, the ascitic fluid was collected and the malignant cells were counted.

Data set [8] is described as follows: in vivo half life of C14-radiolabelled free and latentiated methylglyoxal. The settings on record: free; injected into mice. How it is done:
With free alpha-ketoaldehydes, the half-life is about 30 minutes. […] Latentiation also protects host cells from the toxic effects of alpha-ketoaldehydes.

The subject of data set [9] is blood coagulation (plasma from a patient with prothrombin). The data set is described as follows: Blood coagulation (ii)(a), plasma from a patient with prothrombin. It counts as biochemical, human. Here is the method:
as §1, §2, §3, §4
(a) With plasma from a patient with prothrombin
(clotting time 26 sec d % = 19. "Normal" (healthy)

Setting [10] is: 10x diluted, incubation time 10 seconds.
[11] abbreviates: 20x diluted, incubation time 30 seconds.

As for `Nc1nc(=O)[nH]cc1F` [5FC, 5 fluorocytosine, reference compound], the “duration of action against Candida” value in the data set with Candida albicans [1] is reported as “shortlived action”. In addition, in the data set on Candida albicans [1], the “toxicity to the host” value was “low toxicity to the host”. In addition, the inhibition diameters was 33 mm in the data set on Candida albicans [2] (5 μliter, 24 hours (*)); 45 mm in the data set on Candida albicans [2] (10 μliter, 24 hours (*)); 50 mm with Candida albicans [2] (20 μliter, 24 hours (*)); 55 mm in the data set with Candida albicans [2] (50 μliter, 24 hours (*)).
In the case of `CC(=O)CC(=O)C=O` [AcMG, 3-acetylmethylglyoxal], in data set [3] (incubation time 120 seconds), the clotting time came to 13.9 s. For the same compound, the d% in data set [3] (incubation time 120 seconds) came to 78%. In addition, the “d % (clotting activity)” value in [4] is recorded as 28%. Besides, the coagulation time in [4] was 21.5 s. Further, the clot result in data set [4] was “hard”. For the same compound, the inhibition diameters in the data set on Candida albicans [2] (10 μliter, 24 hours (*)) worked out at 18 mm; in the data set on Candida albicans [2] (10 μliter, 48 hours (**)), 11 mm; with Candida albicans [2] (20 μliter, 24 hours (*)), 31 mm; in the data set on Candida albicans [2] (20 μliter, 48 hours (**)), 24 mm; in the data set on Candida albicans [2] (50 μliter, 24 hours (*)), 34 mm; in the data set with Candida albicans [2] (50 μliter, 48 hours (**)), 30 mm. In the data set on C. albicans, the “inhibition diameters” value stood at 25.3 mm.
As to `O=CC(=O)CCl` [CMG, chloromethylglyoxal], the clotting time in [3] (setting [10]) was 13.5 s; in [3] (incubation time 15 seconds) it was 19.4 s; in data set [3] (incubation time 100 seconds), greater than 178.0 s. In addition, the results for the d% in data set [3] (setting [10]) and in data set [3] (incubation time 15 seconds) were 37% and 33%, respectively. For the same compound, the “d % (clotting activity)” value in [4] is “infinite”. Also, the coagulation time in data set [4] was greater than 200 s. Further, the clot result in data set [4] is “no”. The anti-coagulant effectiveness result in data set [4] is listed as “most effective anti-coagulants”. Also, the “persistence of inhibition rings” value in the data set on Penicillum notatum [5] is listed as “remained unchanged”. For the same compound, the “spore formation / mycelium development in second ring” value with Penicillum notatum [5] is reported as “spore formation in this area was inhibited while mycelium development was not”. Besides, the “diameter of inhibition ring” value with Penicillum notatum [6] (10 microliter) worked out at 8; in the data set on Penicillum notatum [6] (20 microliter) it was 10; with Penicillum notatum [6] (30 microliter) it was 12; in the data set with Penicillum notatum [6] (40 microliter) it was 14; in the data set with Aspergillus niger (10 microliter), 8; in the data set on Aspergillus niger (20 microliter) it was 11. Also, the “diameter of inhibition ring” value with Aspergillus niger (30 microliter) was found to be 17; in the data set on Aspergillus niger (40 microliter), 22. The inhibition diameters was determined as 7 mm in the data set with Candida albicans [2] (10 μliter, 24 hours (*)); 21 mm in the data set on Candida albicans [2] (20 μliter, 24 hours (*)); 10 mm with Candida albicans [2] (20 μliter, 48 hours (**)); 33 mm in the data set on Candida albicans [2] (50 μliter, 24 hours (*)); 31 mm in the data set on Candida albicans [2] (50 μliter, 48 hours (**)); 26.6 mm in the data set with C. albicans.
As for `O=CC(=O)C(Cl)Cl` [DCMG, 3,3-dichloromethylglyoxal], the clotting time is 12.9 s in data set [3] (setting [10]), 20.0 s in [3] (setting [11]) and greater than 170.0 s in data set [3] (incubation time 15 seconds). Further, in data set [3] (setting [11]), the d% was found to be 14.7%. Besides, the “d % (clotting activity)” value in [4] is given as “infinite”. In [4], this compound registered a coagulation time greater than 200 s. Also, the clot entry in [4] is listed as “no”. Moreover, in data set [4], the anti-coagulant effectiveness result is “most effective anti-coagulants”. The “persistence of inhibition rings” value in the data set with Penicillum notatum [5] was “remained unchanged”. Moreover, the “spore formation / mycelium development in second ring” value in the data set on Penicillum notatum [5] is listed as “spore formation in this area was inhibited while mycelium development was not”. The “diameter of inhibition ring” value in the data set on Penicillum notatum [6] (10 microliter) was found to be 8; with Penicillum notatum [6] (20 microliter), 10; with Penicillum notatum [6] (30 microliter), 13; in the data set with Penicillum notatum [6] (40 microliter), 16; in the data set on Aspergillus niger (10 microliter) it was 10; with Aspergillus niger (20 microliter), 12. Moreover, the “diameter of inhibition ring” value is reported as 14 in the data set on Aspergillus niger (30 microliter) and 15 with Aspergillus niger (40 microliter). Besides, the inhibition diameters in the data set with Candida albicans [2] (10 μliter, 24 hours (*)) was determined as 8 mm; with Candida albicans [2] (20 μliter, 24 hours (*)) it was 20 mm; in the data set with Candida albicans [2] (20 μliter, 48 hours (**)) it was 17 mm; in the data set on Candida albicans [2] (50 μliter, 24 hours (*)) it was 32 mm; in the data set with Candida albicans [2] (50 μliter, 48 hours (**)), 29 mm; with C. albicans, 23.0 mm.
Turning to `CC(=O)C=O` [MG, methylglyoxal], the clotting time was 12.9 s in [3] (incubation time 5 seconds); 14.9 s in data set [3] (incubation time 60 seconds); 15.4 s in data set [3] (incubation time 129 seconds); 19.0 s in data set [3] (incubation time 240 seconds); 26.9 s in data set [3] (incubation time 360 seconds); greater than 167.0 s in [3] (incubation time 600 seconds). Also, the clotting time stood at 16.5 s in data set [7] (incubation time 70); 19.4 s in [7] (incubation time 150); 20.0 s in [7] (incubation time 180); 22.0 s in data set [7] (incubation time 240); 24.0 s in data set [7] (incubation time 360); 39 s in data set [9] (incubation time 30 seconds). In addition, the clotting time in data set [9] (incubation time 60 seconds) came to 32 s; in data set [9] (incubation time 130 seconds), 39 s; in data set [9] (incubation time 190 seconds), 41 s; in data set [9] (incubation time 300 seconds), 91.8 s. Also, the d% was determined as 96% in data set [3] (incubation time 5 seconds); 55% in data set [3] (incubation time 60 seconds); 53% in data set [3] (incubation time 129 seconds); 35% in data set [3] (incubation time 240 seconds); 26% in [3] (incubation time 360 seconds); 15% in [9] (incubation time 30 seconds). Moreover, the d% was 13% in data set [9] (incubation time 60 seconds) and less than 10% in [9] (incubation time 130 seconds). Also, in data set [4], the “d % (clotting activity)” value is on record as 20%. Further, the coagulation time in data set [4] worked out at 25 s. In addition, the clot entry in data set [4] is given as “hard”. The “P % (promotion)” value with Sarcoma-180 cells (MG alone, without radiation) is reported as 4.7%. Besides, the TC % with Sarcoma-180 cells (MG alone, without radiation) was 104.7%; with Sarcoma-180 cells (RAD + MG, 120 mg/kg, 612 RAD, 3 times) it was 7.7%. Further, the “diameter of inhibition ring” value in the data set on Penicillum notatum [6] (30 microliter) was determined as 8; in the data set on Penicillum notatum [6] (40 microliter), 10; in the data set on Aspergillus niger (30 microliter), 7; with Aspergillus niger (40 microliter) it was 9. In addition, the inhibition diameters in the data set with Candida albicans [2] (20 μliter, 24 hours (*)) came to 8 mm; with Candida albicans [2] (50 μliter, 24 hours (*)) it was 10 mm; in the data set with C. albicans, 6.0 mm. In addition, in [8], the half life entry was “about 30 minutes”.

The values are drawn from patent US5147652A, “Autobiotics and their use in eliminating nonself cells in vivo” (priority 1990, dated 1992).
